Data on one substance can be found in patent US10370642B2, “Hematopoietic progenitor cell populations having affinity for E-selectin / L-selectin” (priority 2000, dated 2019).

Assay [1] deals with L-selectin. As to the kind of experiment: Stamper-Woodruff assay of immunoprecipitated KG1a CD44 (Example 7). The format is cell-based. The note with it: immunoprecipitate spotted onto glass slides.
Description: To further analyze the L-selectin ligand activity of CD44, we performed Stamper-Woodruff assays using immunoprecipitated CD44 or isotype control (rat lgG)
immunoprecipitates of KG1 a cells that was spotted onto glass slides as described (Sackstein, R. & Dimitroff, C. J. (2000). Blood. 96, 2765-2774).
For a further assay, the target named is T1, P-selectin (Homo sapiens, UniProt P16109).
T1 construct: CHO-P (CHO stably transfected with human cDNA encoding full length P-selectin); expressed in transfected cells
T1 sequence (P16109 42-830): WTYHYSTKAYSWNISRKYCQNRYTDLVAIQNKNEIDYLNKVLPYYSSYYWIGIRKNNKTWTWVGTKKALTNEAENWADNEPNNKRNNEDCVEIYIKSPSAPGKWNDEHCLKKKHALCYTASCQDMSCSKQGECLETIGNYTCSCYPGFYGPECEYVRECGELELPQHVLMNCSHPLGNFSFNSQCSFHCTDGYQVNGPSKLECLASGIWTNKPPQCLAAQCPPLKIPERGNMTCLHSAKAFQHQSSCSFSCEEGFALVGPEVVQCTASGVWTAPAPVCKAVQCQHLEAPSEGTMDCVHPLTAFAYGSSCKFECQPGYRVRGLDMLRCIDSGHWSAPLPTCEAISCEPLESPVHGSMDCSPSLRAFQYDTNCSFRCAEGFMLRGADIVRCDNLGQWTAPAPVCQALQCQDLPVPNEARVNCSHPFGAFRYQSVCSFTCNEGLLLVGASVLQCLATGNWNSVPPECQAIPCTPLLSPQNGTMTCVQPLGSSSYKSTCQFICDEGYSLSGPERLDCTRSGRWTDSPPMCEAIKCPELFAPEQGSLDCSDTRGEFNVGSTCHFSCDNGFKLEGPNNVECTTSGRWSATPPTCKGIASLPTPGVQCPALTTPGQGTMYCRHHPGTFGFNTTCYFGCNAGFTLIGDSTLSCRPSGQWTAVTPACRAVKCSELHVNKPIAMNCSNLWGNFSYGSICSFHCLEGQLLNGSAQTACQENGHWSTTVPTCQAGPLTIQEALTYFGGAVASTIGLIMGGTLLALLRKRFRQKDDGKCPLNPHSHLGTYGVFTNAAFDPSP
Description: CHO-P cell rolling on immobilized immunoprecipitates, parallel-plate flow chamber. It counts as cell-based. The conditions noted are these: 2.8 dynes/cm^2. On the procedure: CD44 or PSGL-1 immunoprecipitates were spotted onto plastic petri dishes, fixed in 3% glutaraldehyde and incubated in 0.2M lysine to block unreactive aldehyde groups, and then non-specific binding was prevented by incubating in 100% FBS for 1 hr at RT. Fixed spots were also treated with Vibrio cholerae neuraminidase (0.1 U/ml assay medium), which was overlaid onto the spots and incubated at 37° C. for 1 hr. The protein dishes were placed in the parallel-plate flow chamber and CHO-E, CHO-P (CHO stably transfected with human cDNA encoding full length P-selectin), CHO-P cells treated with function blocking anti-P-selectin moAb (clone AK-4; Pharmingen) (10 μg/ml), CHO-E cells treated with function blocking anti-E-selectin Abs (10 μg/ml) (clone 68-5H1 1) or Mock transfectants were perfused into the chamber (2×10^6/ml H/H/Ca++) at a flow rate of 0.2 ml/min until the cells were in contact with the substrate. The flow rate was then increased to achieve a shear stress of 2.8 dynes/cm^2. The frequency of cells rolling per 100× magnification field was determined, and data were expressed as the mean±standard deviation of 8 fields visualized from a minimum of 3 experiments.

In a further assay the target is T2, E-selectin (Homo sapiens, UniProt P16581).
T2 construct: stably transfected with full-length cDNA encoding human E-selectin; expressed in transfected cells
T2 sequence (P16581 22-610): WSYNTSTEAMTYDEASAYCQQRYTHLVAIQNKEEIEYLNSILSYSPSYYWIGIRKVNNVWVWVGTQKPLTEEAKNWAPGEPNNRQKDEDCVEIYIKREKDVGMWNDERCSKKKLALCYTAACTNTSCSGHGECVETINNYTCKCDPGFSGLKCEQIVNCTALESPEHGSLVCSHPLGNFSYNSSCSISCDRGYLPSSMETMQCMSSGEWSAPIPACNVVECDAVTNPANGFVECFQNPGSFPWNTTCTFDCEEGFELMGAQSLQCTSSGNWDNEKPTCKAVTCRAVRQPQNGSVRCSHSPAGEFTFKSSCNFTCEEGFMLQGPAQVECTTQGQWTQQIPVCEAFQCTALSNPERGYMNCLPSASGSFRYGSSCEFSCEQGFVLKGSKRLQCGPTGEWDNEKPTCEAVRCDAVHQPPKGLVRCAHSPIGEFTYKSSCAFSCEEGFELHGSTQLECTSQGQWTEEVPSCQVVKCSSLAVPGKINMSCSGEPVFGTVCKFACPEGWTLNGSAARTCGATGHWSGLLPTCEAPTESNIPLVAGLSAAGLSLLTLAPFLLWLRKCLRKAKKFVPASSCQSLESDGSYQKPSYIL
As to the kind of experiment: Blot rolling assay with CHO-E cells. The format is cell-based. The conditions noted are these: immunoprecipitated CD44 on Western blot; 3.8 dynes/cm^2. The method, then:
The blot rolling assay was performed as previously described (Dimitroff et al., 2000). Briefly, CHO-E, CHO—P or CHO-Mock transfectants were isolated as described above, washed twice in HBSS and suspended at 10^7/ml in HBSS/10 mM HEPES/2mMCaCl2 (H/H/Ca++)/10% glycerol. Western blots of HPC membrane preparations stained with HECA-452 were rendered transparent by incubating them in H/H/Ca++/10% glycerol. The blots were then placed in the parallel-plate flow chamber, and CHO transfectants (2×10^6/ml) were perfused into the chamber. After allowing the cells to come in contact with the blotting membrane, the flow rate was adjusted to exert a shear stress of 3.8 dynes/cm^2. The viscosity of 10% glycerol adhesion assay medium was considered in the calculation of shear stress values. The number of cells rolling on and between each immunostained banding region was quantified under 100× magnification within each field of view on the video monitor using molecular weight markers (Kaleidoscope Molecular Weight Markers, Bio-Rad Lab.; See Blue® from Novex, Inc.) as guides to help align and visualize the apparent molecular weights of the proteins of interest. A minimum of 3 experiments was performed and results were expressed as the mean±SD of cell rolling/field at 100× magnification.

Assay [2] deals with L-selectin. As to the kind of experiment: Stamper-Woodruff assay, lymphocyte adherence to immunoprecipitated CD44 and PSGL-1. The format is cell-based, rat. The note with it: equimolar amounts; from 40 to 100 rpm.

In the assay on L-selectin [1], “KG1a CD44: glycoform of CD44 with HECA-452 reactive sialylated, fucosylated N-glycans, immunoprecipitated from KG1a cells with Hermes-1” registered a L-selectin-mediated lymphocyte adherence of 362±15 bound cells/field. In the assay with P-selectin, the “P-selectin ligand activity (CHO-P cell rolling)” value was “not a P-selectin ligand”. Also, in the assay with E-selectin, the “E-selectin ligand activity (CHO-E cell rolling) in blot rolling assay” value is recorded as “possessed E-selectin ligand activity”. For the same substance, the “fold higher lymphocyte adherence compared with PSGL-1” value with L-selectin [2] is reported as 5- to 10 fold.
